# ChEMBL document CHEMBL3091339 (J Med Chem, 2013)
# The source made the active and inactive calls.
# What was measured:
# [1] = test system: Mus musculus; test: Neurotoxicity in CF-1 mouse at 250 mg/kg, po by rotarod test; assay type: toxicity, organism-based; set-up: dose 250 mg/kg, route oral; conditions: in vivo
# [2] = test system: Mus musculus; test: Anticonvulsant activity in CD-1 mouse assessed as protection against maximal electroshock-induced tonic extension of hind limbs at 300 mg/kg, ip after 0.5 hrs; assay type: functional, organism-based; set-up: dose 300 mg/kg; conditions: Hindlimb
# [3] = species on record: Rattus norvegicus; test: Toxicity in Sprague-Dawley rat assessed as ataxia by Irwin test; assay type: organism-based; conditions: in vivo
# [4] = test system: Mus musculus; test: Anticonvulsant activity in CD-1 mouse assessed as protection against maximal electroshock-induced tonic extension of hind limbs at 100 mg/kg, po after 0.5 hrs; assay type: functional, organism-based; set-up: dose 100 mg/kg; conditions: Hindlimb
# [5] = biological target: Carbonic anhydrase 2 (Homo sapiens, UniProt P00918)
# Description: Inhibition of human carbonic anhydrase 2 by CO2 hydration assay
# [6] = species on record: Mus musculus; test: animal or person; conditions: CF-1, Hindlimb, po, 1 h
# Description: (§1) Anticonvulsant activity in po dosed CF-1 mouse assessed as protection against maximal electroshock-induced tonic extension of hind limbs measured at 1 hr
# [7] = test system: Mus musculus; test: Neurotoxicity in CF-1 mouse at 150 mg/kg, po by rotarod test; assay type: toxicity, organism-based; set-up: dose 150 mg/kg, route oral; conditions: in vivo
# [8] = test system: Mus musculus; test: Anticonvulsant activity in CD-1 mouse assessed as protection against maximal electroshock-induced tonic extension of hind limbs at 100 mg/kg, po after 2 hrs; assay type: functional, organism-based; set-up: dose 100 mg/kg; conditions: Hindlimb
# [9] = test system: Rattus norvegicus; test: Anticonvulsant activity in ip dosed Sprague-Dawley rat hippocampal kindling model assessed as suppression of seizure activity treated 15 for mins post suprathreshold-stimulation; assay type: functional, organism-based; conditions: Hippocampus
# [10] = test system: Rattus norvegicus; test: Anticonvulsant activity in Sprague-Dawley rat hippocampal kindling model assessed as complete absence of seizure activity at >300 mg/kg, ip treated 15 for mins post suprathreshold-stimulation; assay type: functional, organism-based; conditions: Hippocampus
# [11] = test system: Mus musculus; test: Anticonvulsant activity in CD-1 mouse assessed as protection against maximal electroshock-induced tonic extension of hind limbs at 300 mg/kg, po after 2 hrs; assay type: functional, organism-based; set-up: dose 300 mg/kg; conditions: Hindlimb
# [12] = test system: Mus musculus; test: Anticonvulsant activity in CD-1 mouse assessed as protection against maximal electroshock-induced tonic extension of hind limbs at 300 mg/kg, po after 0.5 hrs; assay type: functional, organism-based; set-up: dose 300 mg/kg; conditions: Hindlimb
# [13] = test system: Rattus norvegicus; test: Anticonvulsant activity in Sprague-Dawley rat hippocampal kindling model assessed as reduction in global seizures at >26 mg/kg, ip treated 15 for mins post suprathreshold-stimulation; assay type: functional, organism-based; conditions: Hippocampus
# [14] = biological target: Sodium channel protein type 2 subunit alpha (Rattus norvegicus) (UniProt P04775); assay type: cell-based; conditions: CHL1610
# Sodium channel protein type 2 subunit alpha (Rattus norvegicus), sequence (P04775 whole entry, looked up): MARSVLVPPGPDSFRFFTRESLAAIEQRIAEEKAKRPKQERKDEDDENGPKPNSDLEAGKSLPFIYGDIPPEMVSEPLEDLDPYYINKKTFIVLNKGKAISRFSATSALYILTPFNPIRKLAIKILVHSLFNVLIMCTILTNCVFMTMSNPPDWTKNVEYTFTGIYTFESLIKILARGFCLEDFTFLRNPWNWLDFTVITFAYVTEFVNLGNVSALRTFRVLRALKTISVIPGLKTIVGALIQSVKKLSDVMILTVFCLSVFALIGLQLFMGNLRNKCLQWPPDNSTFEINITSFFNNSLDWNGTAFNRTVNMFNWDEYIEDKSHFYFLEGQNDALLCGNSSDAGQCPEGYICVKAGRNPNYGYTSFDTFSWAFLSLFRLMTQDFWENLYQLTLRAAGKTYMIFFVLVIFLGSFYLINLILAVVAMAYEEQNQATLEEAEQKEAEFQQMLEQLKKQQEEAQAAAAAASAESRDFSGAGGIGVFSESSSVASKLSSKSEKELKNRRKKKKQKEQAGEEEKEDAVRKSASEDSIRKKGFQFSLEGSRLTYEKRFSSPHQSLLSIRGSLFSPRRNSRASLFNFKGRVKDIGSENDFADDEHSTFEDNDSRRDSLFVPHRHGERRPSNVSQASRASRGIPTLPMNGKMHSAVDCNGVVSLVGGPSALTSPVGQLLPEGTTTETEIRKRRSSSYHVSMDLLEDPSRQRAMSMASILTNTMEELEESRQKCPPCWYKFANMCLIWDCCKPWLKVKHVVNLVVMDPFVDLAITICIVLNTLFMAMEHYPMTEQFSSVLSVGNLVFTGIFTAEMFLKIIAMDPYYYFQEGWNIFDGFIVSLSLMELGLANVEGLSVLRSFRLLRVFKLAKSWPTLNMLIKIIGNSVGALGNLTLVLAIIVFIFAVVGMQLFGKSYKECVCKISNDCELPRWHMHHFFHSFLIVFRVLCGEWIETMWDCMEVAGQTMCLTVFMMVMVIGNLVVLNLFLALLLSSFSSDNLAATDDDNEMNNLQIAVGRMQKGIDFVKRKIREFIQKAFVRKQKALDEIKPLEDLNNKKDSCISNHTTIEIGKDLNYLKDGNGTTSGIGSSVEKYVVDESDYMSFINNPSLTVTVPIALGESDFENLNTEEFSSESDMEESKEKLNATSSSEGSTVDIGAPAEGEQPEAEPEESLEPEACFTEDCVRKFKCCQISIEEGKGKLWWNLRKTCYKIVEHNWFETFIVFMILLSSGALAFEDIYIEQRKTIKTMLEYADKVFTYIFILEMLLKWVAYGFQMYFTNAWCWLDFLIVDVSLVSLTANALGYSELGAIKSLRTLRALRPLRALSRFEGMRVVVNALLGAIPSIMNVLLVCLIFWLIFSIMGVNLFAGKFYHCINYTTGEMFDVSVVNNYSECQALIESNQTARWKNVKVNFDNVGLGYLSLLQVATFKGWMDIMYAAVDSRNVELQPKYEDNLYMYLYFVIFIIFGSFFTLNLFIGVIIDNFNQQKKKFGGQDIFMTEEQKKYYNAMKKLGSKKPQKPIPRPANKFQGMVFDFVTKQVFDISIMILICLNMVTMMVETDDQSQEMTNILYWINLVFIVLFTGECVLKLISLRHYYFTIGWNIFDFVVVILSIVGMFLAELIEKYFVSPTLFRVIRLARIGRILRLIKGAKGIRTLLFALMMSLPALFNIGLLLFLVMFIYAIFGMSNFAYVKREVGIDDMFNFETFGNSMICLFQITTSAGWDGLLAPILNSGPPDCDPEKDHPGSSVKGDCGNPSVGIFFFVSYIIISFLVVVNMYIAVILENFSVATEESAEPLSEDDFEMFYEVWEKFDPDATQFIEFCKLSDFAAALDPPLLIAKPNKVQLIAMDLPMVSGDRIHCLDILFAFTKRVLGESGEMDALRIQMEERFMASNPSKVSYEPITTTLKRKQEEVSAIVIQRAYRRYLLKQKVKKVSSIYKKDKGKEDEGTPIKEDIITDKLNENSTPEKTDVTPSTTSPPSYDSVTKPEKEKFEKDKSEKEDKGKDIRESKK
# [15] = test system: Mus musculus; test: Anticonvulsant activity in intravenous PTZ-induced CF-1 mouse assessed as increase in seizure threshold for clonus at 182 mg/kg, po treated for 15 mins prior to PTZ-challenge relative to control; assay type: functional
# [16] = test system: Mus musculus; test: Anticonvulsant activity in intravenous PTZ-induced CF-1 mouse assessed as increase in seizure threshold for twitch at 182 mg/kg, po treated for 15 mins prior to PTZ-challenge relative to control; assay type: functional
# [17] = Neurotoxicity in po dosed Sprague-Dawley rat by rotarod test; assay type: toxicity, organism-based; conditions: in vivo
# [18] = Volume of distribution at steady state in beagle dog at 2 mg/kg, iv; assay type: ADME, organism-based, Canis lupus familiaris; set-up: dose 2 mg/kg, route intravenous; conditions: in vivo, read-out: Vdss
# [19] = Clearance in beagle dog at 2 mg/kg, iv; assay type: ADME, organism-based, Canis lupus familiaris; set-up: dose 2 mg/kg, route intravenous; conditions: in vivo
# [20] = AUC in beagle dog at 10 mg/kg, po; assay type: ADME, organism-based, Canis lupus familiaris; set-up: dose 10 mg/kg, route oral; conditions: plasma
# [21] = Half life in beagle dog at 10 mg/kg, po; assay type: ADME, organism-based, Canis lupus familiaris; set-up: dose 10 mg/kg, route oral; conditions: in vivo
# [22] = test system: Canis familiaris; test: Oral bioavailability in beagle dog at 10 mg/kg; assay type: ADME, organism-based, Canis lupus familiaris; conditions: in vivo
# [23] = Cmax in beagle dog at 10 mg/kg, po; assay type: ADME, organism-based, Canis lupus familiaris; set-up: dose 10 mg/kg, route oral; conditions: in vivo
# [24] = Clearance in rat at 2 mg/kg, iv; assay type: ADME, organism-based; set-up: dose 2 mg/kg, route intravenous; conditions: in vivo
# [25] = Volume of distribution at steady state in rat at 2 mg/kg, iv; assay type: ADME, organism-based; set-up: dose 2 mg/kg, route intravenous; conditions: in vivo, read-out: Vdss
# [26] = Half life in rat at 10 mg/kg, po; assay type: ADME, organism-based; set-up: dose 10 mg/kg, route oral; conditions: in vivo
# [27] = test system: Rattus norvegicus; test: Oral bioavailability in rat at 10 mg/kg; assay type: ADME, organism-based; conditions: in vivo
# [28] = Cmax in rat at 10 mg/kg, po; assay type: ADME, organism-based; set-up: dose 10 mg/kg, route oral; conditions: in vivo
# [29] = test system: Liver microsome; test: Drug metabolism in human liver microsomes assessed as hydroxylation metabolite formation by LC-MS/MS analysis; assay type: ADME
# [30] = biological target: Sodium-dependent dopamine transporter (Homo sapiens) (UniProt Q01959); test: Binding affinity to dopamine transporter (unknown origin)
# [31] = biological target: T1, 5-hydroxytryptamine receptor 2C (Homo sapiens) (UniProt P28335); test: Binding affinity to 5HT2C receptor (unknown origin)
# T1 sequence (whole entry): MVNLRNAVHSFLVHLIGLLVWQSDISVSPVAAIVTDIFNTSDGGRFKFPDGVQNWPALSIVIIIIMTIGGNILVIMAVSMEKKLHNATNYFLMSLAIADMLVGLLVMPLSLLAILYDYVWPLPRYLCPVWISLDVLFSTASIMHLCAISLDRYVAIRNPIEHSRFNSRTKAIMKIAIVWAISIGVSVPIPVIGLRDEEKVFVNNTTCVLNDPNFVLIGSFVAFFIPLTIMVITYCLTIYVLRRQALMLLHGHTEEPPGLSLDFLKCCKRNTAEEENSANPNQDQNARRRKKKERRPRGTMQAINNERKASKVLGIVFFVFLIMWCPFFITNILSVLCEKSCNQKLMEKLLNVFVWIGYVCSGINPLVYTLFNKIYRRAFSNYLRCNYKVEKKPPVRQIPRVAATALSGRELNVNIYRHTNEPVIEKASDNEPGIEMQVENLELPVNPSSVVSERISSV
# [32] = biological target: Histamine H1 receptor (Homo sapiens) (UniProt P35367); test: Inhibition of histamine H1 receptor (unknown origin) at 10 uM relative to control
# [33] = species on record: Homo sapiens; test: Binding affinity to chloride channel (unknown origin) at 10 uM
# [34] = species on record: Homo sapiens; test: Binding affinity to central-type benzodiazepine receptor (unknown origin) at 10 uM
# [35] = species on record: Homo sapiens; test: Binding affinity to GABA (unknown origin) at 10 uM
# [36] = biological target: Voltage-dependent N-type calcium channel subunit alpha-1B (Rattus norvegicus) (UniProt Q02294); test: Inhibition of rat Cav2.2-mediated calcium flux expressed in HEK cells at 100 uM at 0.07 Hz by whole-cell patch-clamp assay relative to control; assay type: cell-based; conditions: HEK293
# Voltage-dependent N-type calcium channel subunit alpha-1B (Rattus norvegicus), sequence (Q02294 whole entry, looked up): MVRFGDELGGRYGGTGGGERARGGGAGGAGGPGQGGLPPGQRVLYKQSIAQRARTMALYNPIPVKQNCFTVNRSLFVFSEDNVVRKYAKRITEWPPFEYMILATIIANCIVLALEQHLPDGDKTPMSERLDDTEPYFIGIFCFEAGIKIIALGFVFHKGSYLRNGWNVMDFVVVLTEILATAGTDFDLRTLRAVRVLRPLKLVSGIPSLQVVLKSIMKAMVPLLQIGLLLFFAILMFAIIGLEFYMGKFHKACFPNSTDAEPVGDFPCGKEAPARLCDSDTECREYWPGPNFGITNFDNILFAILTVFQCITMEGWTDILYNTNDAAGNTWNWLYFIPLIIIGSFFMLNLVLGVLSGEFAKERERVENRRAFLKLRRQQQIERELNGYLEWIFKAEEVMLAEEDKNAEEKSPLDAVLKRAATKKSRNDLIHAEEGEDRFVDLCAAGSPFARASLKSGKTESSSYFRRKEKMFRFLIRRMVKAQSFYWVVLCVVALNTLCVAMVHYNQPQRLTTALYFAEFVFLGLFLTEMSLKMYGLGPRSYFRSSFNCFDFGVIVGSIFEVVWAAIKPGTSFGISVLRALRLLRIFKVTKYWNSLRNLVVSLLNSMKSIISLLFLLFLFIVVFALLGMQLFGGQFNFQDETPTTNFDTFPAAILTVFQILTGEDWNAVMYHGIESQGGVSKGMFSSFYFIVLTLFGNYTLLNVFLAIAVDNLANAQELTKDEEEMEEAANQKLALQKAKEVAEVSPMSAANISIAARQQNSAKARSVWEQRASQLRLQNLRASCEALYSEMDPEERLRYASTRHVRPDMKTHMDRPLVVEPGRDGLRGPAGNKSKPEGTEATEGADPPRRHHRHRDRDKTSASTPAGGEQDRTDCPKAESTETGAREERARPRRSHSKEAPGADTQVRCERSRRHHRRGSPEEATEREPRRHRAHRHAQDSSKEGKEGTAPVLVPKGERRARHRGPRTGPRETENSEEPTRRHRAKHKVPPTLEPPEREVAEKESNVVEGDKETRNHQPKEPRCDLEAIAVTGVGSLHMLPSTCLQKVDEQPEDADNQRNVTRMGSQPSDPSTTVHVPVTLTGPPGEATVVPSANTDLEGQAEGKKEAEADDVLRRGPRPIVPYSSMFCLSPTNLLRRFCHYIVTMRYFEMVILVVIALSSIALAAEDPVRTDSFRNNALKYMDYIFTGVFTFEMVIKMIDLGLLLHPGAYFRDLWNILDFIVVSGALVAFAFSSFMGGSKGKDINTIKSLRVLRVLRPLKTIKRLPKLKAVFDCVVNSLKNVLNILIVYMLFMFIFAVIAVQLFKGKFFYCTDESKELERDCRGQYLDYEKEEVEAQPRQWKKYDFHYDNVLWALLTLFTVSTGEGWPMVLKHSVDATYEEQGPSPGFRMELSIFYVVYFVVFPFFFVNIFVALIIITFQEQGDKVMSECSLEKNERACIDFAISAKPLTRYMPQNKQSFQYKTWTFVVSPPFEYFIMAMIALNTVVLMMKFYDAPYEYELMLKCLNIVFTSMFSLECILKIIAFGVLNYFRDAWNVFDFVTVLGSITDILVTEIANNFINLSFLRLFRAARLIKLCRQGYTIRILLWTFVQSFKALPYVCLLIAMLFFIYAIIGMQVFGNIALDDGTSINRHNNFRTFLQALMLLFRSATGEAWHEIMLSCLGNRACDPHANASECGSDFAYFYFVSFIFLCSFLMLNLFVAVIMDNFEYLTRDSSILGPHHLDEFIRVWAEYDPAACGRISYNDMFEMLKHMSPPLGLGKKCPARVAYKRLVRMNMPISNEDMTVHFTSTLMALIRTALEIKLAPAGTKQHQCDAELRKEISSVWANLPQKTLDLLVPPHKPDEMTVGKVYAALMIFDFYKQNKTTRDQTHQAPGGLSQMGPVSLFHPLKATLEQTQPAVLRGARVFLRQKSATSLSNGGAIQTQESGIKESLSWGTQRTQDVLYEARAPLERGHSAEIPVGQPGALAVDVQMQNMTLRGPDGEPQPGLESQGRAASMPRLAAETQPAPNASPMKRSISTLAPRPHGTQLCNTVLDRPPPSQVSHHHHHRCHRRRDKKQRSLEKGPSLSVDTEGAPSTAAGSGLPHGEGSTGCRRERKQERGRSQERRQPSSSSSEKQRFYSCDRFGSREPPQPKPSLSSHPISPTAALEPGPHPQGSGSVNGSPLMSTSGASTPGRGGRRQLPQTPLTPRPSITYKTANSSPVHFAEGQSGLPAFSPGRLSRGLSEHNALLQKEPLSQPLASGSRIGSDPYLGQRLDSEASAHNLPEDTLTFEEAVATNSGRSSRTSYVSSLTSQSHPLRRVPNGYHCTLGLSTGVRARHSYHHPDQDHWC
# [37] = biological target: Voltage-dependent N-type calcium channel subunit alpha-1B (Rattus norvegicus) (UniProt Q02294); test: Inhibition of rat Cav2.2-mediated calcium flux expressed in HEK cells at 100 uM at 5 Hz by whole-cell patch-clamp assay relative to control; assay type: cell-based; conditions: HEK293
# [38] = biological target: Sodium channel protein type 2 subunit alpha (Rattus norvegicus, UniProt P04775); test: Inhibition of rat Nav1.2 expressed in CHL1610 cells at -67 mV after 2 to 3 mins by whole-cell patch-clamp assay; assay type: cell-based
# Sodium channel protein type 2 subunit alpha, sequence (P04775 whole entry): as the sequence (P04775 whole entry, looked up) above
# [39] = biological target: Sodium channel protein type 2 subunit alpha (Rattus norvegicus) (UniProt P04775); assay type: cell-based; conditions: CHL1610; remark: listed apart in the source
# [40] = Neurotoxicity in rat by muscle tone test; assay type: toxicity, organism-based, Muscle tissue; conditions: in vivo
# [41] = Neurotoxicity in rat by positional sense test; assay type: toxicity, organism-based; conditions: in vivo
# [42] = test system: Rattus norvegicus; test: Anticonvulsant activity in ip dosed Sprague-Dawley rat hippocampal kindling model assessed as reduction in global seizures treated 15 for mins post suprathreshold-stimulation; assay type: functional, organism-based; conditions: Hippocampus
# [43] = test system: Rattus norvegicus; test: Anticonvulsant activity in ip dosed Sprague-Dawley rat hippocampal kindling model assessed as effect on after discharge duration treated 15 for mins post suprathreshold-stimulation; assay type: functional, organism-based; conditions: Hippocampus
# [44] = test system: Mus musculus; test: Anticonvulsant activity in intravenous PTZ-induced CF-1 mouse assessed as increase in seizure threshold for clonus at […], ip treated for 15 mins prior to PTZ-challenge relative to control; assay type: functional
# [45] = test system: Mus musculus; test: Anticonvulsant activity in intravenous PTZ-induced CF-1 mouse assessed as increase in seizure threshold for twitch at […], ip treated for 15 mins prior to PTZ-challenge relative to control; assay type: functional
# [46] = biological target: Carbonic anhydrase 1 (Homo sapiens, UniProt P00915); test: Inhibition of carbonic anhydrase 1 (unknown origin)
# Carbonic anhydrase 1, sequence (P00915 whole entry): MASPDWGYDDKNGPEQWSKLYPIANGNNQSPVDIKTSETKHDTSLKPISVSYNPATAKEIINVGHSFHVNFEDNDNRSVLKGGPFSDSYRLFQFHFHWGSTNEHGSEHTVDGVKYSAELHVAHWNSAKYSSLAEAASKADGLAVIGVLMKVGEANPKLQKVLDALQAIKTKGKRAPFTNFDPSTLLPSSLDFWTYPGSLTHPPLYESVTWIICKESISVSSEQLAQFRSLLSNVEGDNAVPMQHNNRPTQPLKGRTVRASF
# [47] = biological target: T2, Voltage-dependent N-type calcium channel subunit alpha-1B (Rattus norvegicus, UniProt Q02294)
# T2 sequence (Q02294 whole entry): as the sequence (Q02294 whole entry, looked up) above
# Description: Inhibition of rat Cav2.2-mediated calcium flux expressed in HEK cells by FDSS assay
# [48] = biological target: T2, Voltage-dependent N-type calcium channel subunit alpha-1B; remark: listed apart in the source
# Description: Inhibition of rat Cav2.2-mediated calcium flux expressed in HEK cells at 0.07 Hz by whole-cell patch-clamp assay
# [49] = in vivo; conditions: beagle, dog, po, 10 mg/kg
# [50] = in vivo; conditions: rat, po, 10 mg/kg
# [51] = biological target: Sodium channel protein type 2 subunit alpha (Rattus norvegicus) (UniProt P04775); conditions: CHL1610
# [52] = species on record: Mus musculus; test: animal or person; conditions: CF-1, Hindlimb, po, 2 h
# Description: Anticonvulsant activity in po dosed CF-1 mouse assessed as protection against maximal electroshock-induced tonic extension of hind limbs measured at 2 hrs
# [53] = species on record: Mus musculus
# Description: as §1
smiles,measurement,setting,value
NS(=O)(=O)NC[C@H]1COc2ccccc2O1,Activity,[1],Non-toxic
same,Activity,[2],Active
NS(=O)(=O)NC[C@@H]1COc2ccccc2O1,Activity,[3],Toxic
same,Activity,[2],Active
NS(=O)(=O)NC[C@H]1COc2c(Cl)cccc2O1,Activity,[4],inactive
same,IC50,[5],220 µM
same,ED50,[6],124 mg/kg
NS(=O)(=O)NC[C@H]1COc2ccc(Cl)cc2O1,Activity,[7],Non-toxic
same,Activity,[4],inactive
COc1cccc2c1O[C@@H](CNS(N)(=O)=O)CO2,Activity,[8],inactive
same,Activity,[4],inactive
same,IC50,[5],300 µM
CCC1(C)CC(=O)NC1=O (stereo unspecified),Activity,[9],inactive
CCCC(CCC)C(=O)O,Activity,[9],Active
same,Activity,[10],Active
Cc1ccc2c(c1)O[C@@H](CNS(N)(=O)=O)CO2,Activity,[11],inactive
same,Activity,[12],inactive
NC(=O)N1c2ccccc2C=Cc2ccccc21,Activity,[9],Active
same,Activity,[13],Active
NCC1(CC(=O)O)CCCCC1,Activity,[14],inactive
NS(=O)(=O)NCC1CCc2ccccc2O1 (stereo unspecified),Activity,[12],Active
same,Activity,[8],inactive
NS(=O)(=O)NCC1Oc2ccc(Cl)cc2O1 (stereo unspecified),Activity,[8],inactive
same,Activity,[4],inactive
NS(=O)(=O)NCC1Oc2ccccc2O1,Activity,[8],inactive
same,Activity,[2],Active
same,Activity,[4],Active
NS(=O)(=O)NCCC1COc2ccccc2O1 (stereo unspecified),Activity,[11],inactive
same,Activity,[12],Active
same,Activity,[8],inactive
same,Activity,[4],inactive
NS(=O)(=O)NC[C@H]1COc2c(F)cccc2O1,Activity,[11],Active
same,Activity,[8],inactive
NS(=O)(=O)NC[C@H]1COc2cc(Br)ccc2O1,Activity,[11],Active
same,Activity,[12],inactive
NS(=O)(=O)NC[C@H]1COc2cc(Cl)c(Cl)cc2O1,Activity,[4],inactive
NS(=O)(=O)NC[C@H]1COc2cc(F)ccc2O1,Activity,[11],Active
NS(=O)(=O)NC[C@H]1COc2cccc(Cl)c2O1,Activity,[8],inactive
NS(=O)(=O)NCC1COc2ccccc2O1 (racemic),Activity,[15],59%
same,Activity,[16],41%
same,TD50,[17],182 mg/kg
same,Activity,[2],Active
CN(C)S(=O)(=O)NCC1COc2ccccc2O1 (racemic),Activity,[11],inactive
same,IC50,[5],> 1000 µM
CN(CC1COc2ccccc2O1)S(N)(=O)=O (racemic),Activity,[12],Active
NS(=O)(=O)NC[C@H]1COc2cc(Cl)ccc2O1 [JNJ-26489112],Vd,[18],0.63 L/kg
same,clearance,[19],0.5 mL/min/kg
same,AUC,[20],212 µg·h/mL
same,half-life,[21],20 h
same,F,[22],83%
same,Cmax,[23],11500 ng/mL
same,clearance,[24],1.6 mL/min/kg
same,Vd,[25],0.39 L/kg
same,half-life,[26],8.2 h
same,F,[27],95%
same,Cmax,[28],9090 ng/mL
same,Drug metabolism,[29],Active
same,INH,[30],16 µM
same,INH,[31],29 µM
same,inhibition,[32],23%
same,inhibition,[33],inactive
same,inhibition,[34],inactive
same,inhibition,[35],inactive
same,inhibition,[36],37%
same,inhibition,[37],53%
same,IC50,[38],36 µM
same,inhibition,[39],inactive
same,NOAEL,[40],500 mg/kg
same,NOAEL,[41],500 mg/kg
same,Activity,[42],Active
same,Activity,[43],inactive
same,Activity,[44],232%
same,Activity,[45],80%
same,IC50,[46],18 µM
same,Ki,[46],2.2 µM
same,Activity,[11],Active
same,Activity,[4],inactive
same,IC50,[47],34 µM
same,IC50,[48],70 µM
same,Tmax,[49],0.917 h
same,Tmax,[50],0.883 h
same,inhibition,[51],Dose-dependent effect
O=C1NC(=O)C(c2ccccc2)(c2ccccc2)N1 [PHENYTOIN],Activity,[9],Active
same,ED50,[52],9 mg/kg
CC1(C)O[C@@H]2[C@@H](CO[C@@]3(COS(N)(=O)=O)OC(C)(C)O[C@@H]23)O1 [TOPIRAMATE],Activity,[9],inactive
same,ED50,[53],43.8 mg/kg
